The term IC50 denotes the concentration that gives 50% inhibition.

The target in one experiment is T1, full-length recombinant human NEK7 (Homo sapiens, UniProt Q8TDX7).
T1 construct: full-length recombinant human NEK7; GST (N); purchased SignalChem N09-10G; host or cells: Sf9 insect cells (baculovirus)
T1 sequence (Q8TDX7 whole entry): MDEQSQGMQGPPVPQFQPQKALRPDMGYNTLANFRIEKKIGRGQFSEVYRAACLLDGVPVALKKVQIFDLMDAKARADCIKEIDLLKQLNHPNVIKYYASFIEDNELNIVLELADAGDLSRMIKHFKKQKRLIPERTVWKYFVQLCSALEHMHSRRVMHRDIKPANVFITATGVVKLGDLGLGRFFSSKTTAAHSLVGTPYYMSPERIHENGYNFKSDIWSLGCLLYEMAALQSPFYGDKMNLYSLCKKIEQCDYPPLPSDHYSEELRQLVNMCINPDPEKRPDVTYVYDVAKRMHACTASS
The experiment can be described thus: NEK7 enzymatic assay ([33P]-ATP, casein substrate). The format is biochemical. To be noted: Table 2a; recombinant human NEK7, casein substrate. Here is the method:
In some embodiments, the IC50 of the compounds of Structure (I), (Ia), (Ib), (Ic), (Id), (Ie), or (If) to inhibit NEK7 was determined by the concentration of the compound required to inhibit 50% of the activity of the NEK kinase.
(§1) Casein substrate (from bovine milk, hydrolyzed and partially dephosphorylated mixture of α, β and κ caseins, obtained from Sigma Aldrich, catalogue #C4765, diluted in distilled water to a final concentration of 1 mg/mL) and full-length recombinant human NEK7 (expressed by baculovirus in Sf9 insect cells using a N-terminal GST tag, obtained from SignalChem, catalogue #N09-10G, 0.1 μg/μL) were mixed in assay buffer (20 mM Hepes pH 7.5, 10 mM MgCl2, 1 mM EGTA, 0.02% Brij35, 0.02 mg/ml BSA, 0.1 mM Na3 VO4, 2 mM DTT, 1% DMSO). Compounds of interest (serial 3-fold dilution in DMSO from 10 μM to 0.5 nM) or vehicle (1% DMSO) were dispensed into the kinase reaction mixture by Acoustic technology (Echo550, nanoliter range). After incubation at room temperature for 20 minutes, the kinase reaction was initiated by addition of [^33P]-ATP (specific activity 10 μCi/μl) and the mixture was incubated at room temperature for 2 hours. The reaction was then stopped by spotting the reaction mixture on strips of phosphocellulose P81 paper. Following washing, the radioactivity of the P81 paper was measured and kinase activity data were expressed as the percent remaining kinase activity in test samples compared to vehicle reactions. IC50 values and curve fits were obtained using Prism (GraphPad Software).
as §1, with “μg/L)” for “μg/μL)”, “Na3VO4,” for “Na3 VO4,”, “(Echo550;” for “(Echo550,”
As for `CC(C)n1nc(-c2ccc(NC(=O)Nc3cc(C(C)(C)C)no3)cc2)c2c(N)ncnc21` [Ia-1, 1-(4-(4-amino-1-isopropyl-1H-pyrazolo[3,4-d]pyrimidin-3-yl)phenyl)-3-(3-(tert-butyl)isoxazol-5-yl)urea], the IC50 is 301 to 500 nM.
On the same count and under the same terms, the result for `CC(C)(C)c1cc(NC(=O)Nc2ccc(-c3nn(C4COC4)c4ncnc(N)c34)cc2)on1` [Ia-2, 1-(4-(4-amino-1-(oxetan-3-yl)-1H-pyrazolo[3,4-d]pyrimidin-3-yl)phenyl)-3-(3-(tert-butyl)isoxazol-5-yl)urea] reads 151 to 300 nM.
Consider `CC(C)(C)c1cc(NC(=O)Nc2ccc(-c3nn(C4COC4)c4ncnc(N)c34)cc2)no1` [Ia-3, 1-(4-(4-amino-1-(oxetan-3-yl)-1H-pyrazolo[3,4-d]pyrimidin-3-yl)phenyl)-3-(5-(tert-butyl)isoxazol-3-yl)urea], for which the IC50 is 151 to 300 nM.
For the compound `CC(C)(C)c1cc(NC(=O)Nc2ccc(-c3nn(C4CCOCC4)c4ncnc(N)c34)cc2)on1` [Ia-4, 1-(4-(4-amino-1-(tetrahydro-2H-pyran-4-yl)-1H-pyrazolo[3,4-d]pyrimidin-3-yl)phenyl)-3-(3-(tert-butyl)isoxazol-5-yl)urea], the IC50 was in the range of 301 to 500 nM.
As to `CC(C)(C)c1cc(NC(=O)Nc2ccc(-c3nn(C4CCOC4)c4ncnc(N)c34)cc2)on1` (centres unmarked) [Ia-5, 1-(4-(4-amino-1-(tetrahydrofuran-3-yl)-1H-pyrazolo[3,4-d]pyrimidin-3-yl)phenyl)-3-(3-(tert-butyl)isoxazol-5-yl)urea], the IC50 is 151 to 300 nM.
`CC(C)n1nc(-c2ccc(NC(=O)Nc3cc(C(C)(C)C)no3)c(Cl)c2)c2c(N)ncnc21` [Ia-6]: the IC50 lay in the range of 501 to 1500 nM.
As for `CC(C)(C)c1cc(NC(=O)Nc2ccc(-c3nn(C4CCC4)c4ncnc(N)c34)cc2)on1` [Ia-7, 1-(4-(4-amino-1-cyclobutyl-1H-pyrazolo[3,4-d]pyrimidin-3-yl)phenyl)-3-(3-(tert-butyl)isoxazol-5-yl)urea], the IC50 was in the range of 151 to 300 nM.
On the same count and under the same terms, the result for `CC(C)(C)c1cc(NC(=O)Nc2ccc(-c3nn(C4CCC4)c4ncnc(N)c34)cc2F)on1` [Ia-8, 1-(4-(4-amino-1-cyclobutyl-1H-pyrazolo[3,4-d]pyrimidin-3-yl)-2-fluorophenyl)-3-(3-(tert-butyl)isoxazol-5-yl)urea] reads below 150 nM; that for `CC(C)(O)Cn1nc(-c2ccc(NC(=O)Nc3cc(C(C)(C)C)no3)cc2)c2c(N)ncnc21` [Ia-9, 1-(4-(4-amino-1-(2-hydroxy-2-methylpropyl)-1H-pyrazolo[3,4-d]pyrimidin-3-yl)phenyl)-3-(3-(tert-butyl)isoxazol-5-yl)urea], 301 to 500 nM; that for `CC(C)(O)Cn1nc(-c2ccc(NC(=O)Nc3cc(C(C)(C)C)no3)c(F)c2)c2c(N)ncnc21` [Ia-10], below 150 nM.
Regarding `CC(C)n1nc(-c2ccc(NC(=O)Nc3cc(C(C)(C)C)no3)c(F)c2)c2c(N)ncnc21` [Ia-11, 1-(4-(4-amino-1-isopropyl-1H-pyrazolo[3,4-d]pyrimidin-3-yl)-2-fluorophenyl)-3-(3-(tert-butyl)isoxazol-5-yl)urea], the IC50 is below 150 nM.
As for `CC(C)(C)c1cc(NC(=O)Nc2ccc(-c3nn(C4CCC(O)CC4)c4ncnc(N)c34)cc2F)on1` (centres unmarked) [Ia-15], the IC50 was below 150 nM.
For the compound `CC(C)(C)c1cc(NC(=O)Nc2ccc(-c3nn(C4CC(F)(F)C4)c4ncnc(N)c34)cc2F)on1` [Ia-16, 1-(4-(4-amino-1-(3,3-difluorocyclobutyl)-1H-pyrazolo[3,4-d]pyrimidin-3-yl)-2-fluorophenyl)-3-(3-(tert-butyl)isoxazol-5-yl)urea], the IC50 was in the range of 501 to 1500 nM.
Consider `CC(C)(C)c1cc(NC(=O)Nc2ccc(-c3nn(-c4ccncc4)c4ncnc(N)c34)cc2F)on1` [Ia-17, 1-(4-(4-amino-1-(pyridin-4-yl)-1H-pyrazolo[3,4-d]pyrimidin-3-yl)-2-fluorophenyl)-3-(3-(tert-butyl)isoxazol-5-yl)urea], for which the IC50 fell in the range of 301 to 500 nM.
`CC(C)(C)c1cc(NC(=O)Nc2ccc(-c3nn(C4CCS(=O)(=O)C4)c4ncnc(N)c34)cc2F)on1` (centres unmarked) [Ia-18, 1-(4-(4-amino-1-(1,1-dioxdotetrahydrothiophen-3-yl)-1H-pyrazolo[3,4-d]pyrimidin-3-yl)-2-fluorophenyl)-3-(3-(tert-butyl)isoxazol-5-yl)urea]: the IC50 was in the range of 151 to 300 nM.
`CC(C)(C)c1cc(NC(=O)Nc2ccc(-c3nn(C4CCCOC4)c4ncnc(N)c34)cc2F)on1` (centres unmarked) [Ia-19, 1-(4-(4-amino-1-(tetrahydro-2H-pyran-3-yl)-1H-pyrazolo[3,4-d]pyrimidin-3-yl)-2-fluorophenyl)-3-(3-(tert-butyl)isoxazol-5-yl)urea]: the IC50 is 301 to 500 nM.
Consider `CC(C)(C)c1cc(NC(=O)Nc2ccc(-c3nn(C4CC4)c4ncnc(N)c34)cc2)on1` [Ia-20, 1-(4-(4-amino-1-cyclopropyl-1H-pyrazolo[3,4-d]pyrimidin-3-yl)phenyl)-3-(3-(tert-butyl)isoxazol-5-yl)urea], for which the IC50 is below 150 nM.

Still in this experiment, the particulars now being: comparative compounds of Structure (II).
Regarding `CC(C)n1nc(-c2ccc3c(c2F)CCN3C(=O)Cc2cccc(C(F)(F)F)c2)c2c(N)ncnc21` [II-1, l-(5-(4-amino-1-isopropyl-1H-pyrazolo[3,4-d]pyrimidin-3-yl)-4-fluoroindolin-1-yl)-2-(3-(trifluoromethyl)phenyl)ethan-1-one], the IC50 was 301 to 500 nM.
`CC(C)n1nc(-c2ccc3c(c2F)CCN3C(=O)Cc2ccc(F)c(C(F)(F)F)c2)c2c(N)ncnc21` [II-2, 1-(5-(4-amino-1-isopropyl-1H-pyrazol[3,4-d]pyrimidin-3-yl)-4-fluoroindolin-1-yl)-2-(4-fluoro-3-(trifluoromethyl)phenyl)ethan-1-one]: the IC50 fell in the range of 151 to 300 nM.
Regarding `Nc1ncnc2c1c(-c1ccc3c(c1F)CCN3C(=O)Cc1cccc(C(F)(F)F)c1)nn2C1CC1` [II-4, 1-(5-(4-amino-1-cyclopropyl-1H-pyrazolo[3,4-d]pyrimidin-3-yl)-4-fluoroindolin-1-yl)-2-(3-(trifluoromethyl)phenyl)ethan-1-one], the IC50 lay within 151 to 300 nM.
For the compound `Cc1ccc(CC(=O)N2CCc3c2ccc(-c2nn(C(C)C)c4ncnc(N)c24)c3F)cc1C(F)(F)F` [II-5, 1-(5-(4-amino01-isopropyl-1H-pyrazolo[3,4-d]pyrimidin-3-yl)-4-fluoroindolin-1-yl)-2-(4-methyl-3-(trifluoromethyl)phenyl)ethan-1-one], the IC50 lay in the range of 301 to 500 nM.
Take `Cc1c(CC(=O)N2CCc3c2ccc(-c2nn(C(C)C)c4ncnc(N)c24)c3F)cccc1C(F)(F)F` [II-6, 1-(5-(4-amino-1-isopropyl-1H-pyrazolo[3,4-d]pyrimidin-3-yl)-4-fluoroindolin-l-yl)-2-(2-methyl-3-(trifluoromethyl)phenyl)ethan-1-one]: the IC50 was above 1500 nM.
Regarding `CC(C)n1nc(-c2ccc3c(c2F)CCN3C(=O)Cc2cccc(OC(F)(F)F)c2)c2c(N)ncnc21` [II-7, 1-(5-(4-amino-1-isopropyl-1H-pyrazolo[3,4-d]pyrimidin-3-yl)-4-fluoroindolin-1-yl)-2-(3-(trifluoromethoxy)phenyl)ethan-1-one], the IC50 lay in the range of 151 to 300 nM.
As to `CC(C)n1nc(-c2ccc3c(c2Cl)CCN3C(=O)Cc2ccc(F)c(C(F)(F)F)c2)c2c(N)ncnc21` [II-8, 1-(5-(4-amino-1-isopropyl-1H-pyrazolo[3,4-d]pyrimidin-3-yl)-4-chloroindolin-1-yl)-2-(4-fluoro-3-(trifluoromethyl)phenyl)ethan-1-one], the IC50 was 501 to 1500 nM.
As for `Nc1ncnc2c1c(-c1ccc3c(c1F)CCN3C(=O)Cc1ccc(F)c(C(F)(F)F)c1)nn2C1COC1` [II-9, 1-(5-(4-amino-1-(oxetan-3-yl)-1H-pyrazolo[3,4-d]pyrimidin-3-yl)-4-fluoroindolin-1-yl)-2-(4-fluoro-3-(trifluoromethyl)phenyl)ethan-1-one], the IC50 was in the range of 501 to 1500 nM.
For `Nc1ncnc2c1c(-c1ccc3c(c1Cl)CCN3C(=O)Cc1ccc(F)c(C(F)(F)F)c1)nn2C1COC1` [II-10, 1-(5-(4-amino-1-(oxetan-3-yl)-1H-pyrazolo[3,4-d]pyrimidin-3-yl)-4-chloroindolin-1-yl)-2-(4-fluoro-3-(trifluoromethyl)phenyl)ethan-1-one], the IC50 lay in the range of 151 to 300 nM.

The values are drawn from patent US20230210853A1 (Halia Therapeutics, Inc., priority 2020, published 2023).
